Several values for one entry are separate records, joined by “and”; a condition that tells them apart may be missing. Equal entries are not always repeated.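 Test compounds were applied to cells in 96-well plates for 48 hours at 5 doses. Abbreviation: GI50, concentration required for 50% inhibition of growth. TGI: total growth inhibition.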
How the values were obtained:
Test in all cases: growth of human tumour cells (NCI), 48 h
NCI-H23 lung = system: NCI-H23 lung
NCI-H460 lung = system: NCI-H460 lung
NCI-H522 lung = system: NCI-H522 lung
NCI/ADR-RES ovarian = system: NCI/ADR-RES ovarian
OVCAR-3 ovarian = system: OVCAR-3 ovarian
OVCAR-4 ovarian = system: OVCAR-4 ovarian
OVCAR-5 ovarian = system: OVCAR-5 ovarian
OVCAR-8 ovarian = system: OVCAR-8 ovarian
PC-3 prostate = system: PC-3 prostate
RPMI-8226 leukemia = system: RPMI-8226 leukemia
RXF 393 renal = system: RXF 393 renal
SF-268 CNS = system: SF-268 CNS
SF-295 CNS = system: SF-295 CNS
SF-539 CNS = system: SF-539 CNS
SK-MEL-2 melanoma = system: SK-MEL-2 melanoma
SK-MEL-28 melanoma = system: SK-MEL-28 melanoma
SK-MEL-5 melanoma = system: SK-MEL-5 melanoma
SK-OV-3 ovarian = system: SK-OV-3 ovarian
SN12C renal = system: SN12C renal
SNB-19 CNS = system: SNB-19 CNS
SNB-75 CNS = system: SNB-75 CNS
SR leukemia = system: SR leukemia
SW-620 colon = system: SW-620 colon
T-47D breast = system: T-47D breast
TK-10 renal = system: TK-10 renal
U251 CNS = system: U251 CNS
UACC-257 melanoma = system: UACC-257 melanoma
UACC-62 melanoma = system: UACC-62 melanoma
UO-31 renal = system: UO-31 renal

C=CCN(/C=C1\C(=O)O[C@H](COC)[C@@]2(C)C1=C(O)C(=O)C1=C2[C@H](OC(C)=O)C[C@]2(C)C(=O)CC[C@@H]12)CC=C
TGI (NCI-H23 lung): 20 µM and > 100 µM | GI50 (NCI-H460 lung): 0.278 µM and 0.374 µM | TGI (NCI-H460 lung): 20 µM and > 100 µM | GI50 (NCI-H522 lung): 6.46 µM and 2.87 µM | TGI (NCI-H522 lung): 20 µM and 22.2 µM | GI50 (NCI/ADR-RES ovarian): 5.76 µM and 2.34 µM | TGI (NCI/ADR-RES ovarian): 20 µM and > 100 µM | TGI (OVCAR-3 ovarian): 20 µM and 4.16 µM | GI50 (OVCAR-4 ovarian): 2.97 µM and 2.58 µM | TGI (OVCAR-4 ovarian): 20 µM and > 100 µM | GI50 (OVCAR-5 ovarian): 2.34 µM and 0.737 µM | TGI (OVCAR-5 ovarian): 20 µM and 76.4 µM | GI50 (OVCAR-8 ovarian): 10.2 µM and 3.09 µM | TGI (OVCAR-8 ovarian): 20 µM and > 100 µM | TGI (PC-3 prostate): > 100 µM | GI50 (RPMI-8226 leukemia): 7.91 µM and 1.42 µM | TGI (RPMI-8226 leukemia): 20 µM and 14.1 µM | GI50 (RXF 393 renal): 0.00922 µM and 0.0149 µM | TGI (RXF 393 renal): 0.261 µM and 0.196 µM | GI50 (SF-268 CNS): 0.992 µM and 1.46 µM | TGI (SF-268 CNS): 20 µM and > 100 µM | GI50 (SF-295 CNS): 0.0935 µM and 0.205 µM | TGI (SF-295 CNS): 4.82 µM and 9.89 µM | GI50 (SF-539 CNS): 3.6 µM and 0.524 µM | TGI (SF-539 CNS): 20 µM and 6.41 µM | GI50 (SK-MEL-2 melanoma): 3.67 µM and 1.48 µM | TGI (SK-MEL-2 melanoma): 20 µM and 8.33 µM | GI50 (SK-MEL-28 melanoma): 0.838 µM | TGI (SK-MEL-28 melanoma): 49.1 µM | GI50 (SK-MEL-5 melanoma): 3.22 µM and 2.18 µM | TGI (SK-MEL-5 melanoma): 20 µM and 11.6 µM | GI50 (SK-OV-3 ovarian): 3.38 µM and 0.596 µM | TGI (SK-OV-3 ovarian): 20 µM and 19.8 µM | GI50 (SN12C renal): 1.99 µM and 1.07 µM | TGI (SN12C renal): 20 µM and > 100 µM | GI50 (SNB-19 CNS): 5.92 µM and 1.1 µM | TGI (SNB-19 CNS): 20 µM and 92.9 µM | GI50 (SNB-75 CNS): 0.291 µM and 0.0327 µM | GI50 (SR leukemia): 0.86 µM and 0.644 µM | TGI (SR leukemia): 20 µM and 8.02 µM | GI50 (SW-620 colon): 6.16 µM and 2.09 µM | TGI (SW-620 colon): 20 µM and > 100 µM | TGI (T-47D breast): 20 µM and > 100 µM | GI50 (TK-10 renal): 0.128 µM and 0.437 µM | GI50 (U251 CNS): 1.6 µM and 3.35 µM | TGI (U251 CNS): 20 µM and > 100 µM | GI50 (UACC-257 melanoma): 9.18 µM and 2.26 µM | TGI (UACC-257 melanoma): 20 µM and > 100 µM | GI50 (UACC-62 melanoma): 0.11 µM and 0.075 µM | TGI (UACC-62 melanoma): 1.38 µM and 2.38 µM | GI50 (UO-31 renal): 1.51 µM and 0.331 µM | TGI (UO-31 renal): 20 µM and > 100 µM
